# Reference: patent US20200046720A1, “ENGINEERED BIOCOMPATIBLE ANTIBIOTIC PARTICLES AND THEIR USE AGAINST URINARY TRACT INFECTION” (The University of North Carolina at Chapel Hill, priority 2016, published 2020)
# Legend:
# E. coli UT189 [1] = assay: Tissue culture-based microbial inhibition assay, intracellular E. coli infection of bladder epithelial cells; format: cell-based, Escherichia coli; details: cultured bladder epithelial cells
# Procedure: FIGS. 3A-D show PRINT-Levofloxacin provides prolonged protection against intracellular E. coli infection. UROTSA bladder epithelial cell monolayers were incubated with media, free levofloxacin (FREE LEVO), blank PRINT particles (BLANK PRINT), or a formulation of PRINT encapsulated levofloxacin (PRINT-LEVO) for 1 hour. Each treatment was removed, the cells were washed, and the cells were immediately infected with E. coli UT189 (FIG. 3A), 8 hours later (FIG. 3B), or 18 hours later (FIG. 3C). After 1 hour of infection with E. coli, the medium was replaced with medium containing gentamicin to eliminate extracellular bacteria. Viable bacteria in the bladder epithelial cells were enumerated 24 hours later. The formulations and associated sizes and charges are shown for reference (FIG. 3D). Tissue culture-based microbial inhibition assays-Bladder epithelial cell lines 5637 and UROTSA have been previously described. Tissue culture cells were growth in RPMI 1640 media to 80% confluence and lifted using trypsin-EDTA (Sigma-Aldrich). Twenty four well plates (Genesee Scientific) were seeded with 5637 cells and grown for 2 days at 37° C., 5% CO2 prior to infections. Where appropriate to the assay conditions, unencapsulated (“free”) levofloxacin was added to the wells one hour prior to infection and at the same concentration as wells treated with PRINT-levofloxacin particles. […]
# E. coli UT189 [2] = assay: Rat spinal cord injury UTI infection model; format: in vivo, Escherichia coli; details: female SCI rats, single intracystic dose, drained after 1 hour, infected 8 hours later, bladder and kidney
# Procedure: FIGS. 6A-C show PRINT-LEVO provides sustained protection against E. coli UTI in the SCI rat. Female SCI rats were treated by transurethral catheterization and instillation of a volume equivalent to their previously determined residual urine volume containing PBS, PBS with free levofloxacin (5 μg/ml), PRINT-LEVO (formula D5), or BLANK PRINT particles (wt/vol equivalent to PRINT-LEVO). After 1 hour of treatment, all animals had their bladder creded to remove each treatment. The animals were infected with E. coli at increasing time intervals following the administration and drainage of the test or control agents from the bladder: 4 hours (FIG. 6A), 8 hours (FIG. 6B), or 18 hours (FIG. 6C). Bacteria were counted in the bladders and kidneys 24 hours after infection with E. coli by tissue homogenization and plating of dilutions on solid agar medium. Horizontal bars indicate the geometric means.
# As described previously, female Sprague-Dawley rats (Harlan; 175-200 gm) underwent controlled surgical T10 spinal cord transection to model spinal cord injury and produce a neurogenic bladder phenotype. […] Due to the spinal cord injury and subsequent neurogenic bladder phenotypes, animals were routinely monitored and creded to relieve urinary retention each 12 hours. […]
structure (smiles),measurement,setting,value
"C[C@H]1COc2c(N3CCN(C)CC3)c(F)cc3c(=O)c(C(=O)O)cn1c23 [free levofloxacin, levofloxacin]",time to loss of significant effectiveness after a single dose,E. coli UT189 [1],≤ 1 h
same,"protection against E. coli infection (animals infection-free), 8 hour delay",E. coli UT189 [2],12.5%
